Source: patent US20150344457A1, “METHODS OF INHIBITING PRMT5” (EPIZYME, INC., priority 2012, published 2015)

Key:
[1] = tested on: Z-138 cells; assay: Z-138 Proliferation Assay (Cell Titer Glo, 5 days); type: cell-based; conditions: Homo sapiens, 120 h, Table A-2, 5 days, top concentration 20 μM
Summary of the method: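 Exponentially growing Z-138 cells (10,000 cells/ml) in RPMI 1640 with 10% FBS are exposed to nine-point 3-fold dilutions (final top concentration 20 μM, 0.2% DMSO) for 5 days at 37° C. Viability is measured as ATP by CellTiter-Glo luminescence. The 50% inhibitory concentration comes from a 4-parameter fit.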

[2] = tested on: Z-138 cells; assay: Z-138 Methylation Assay (In Cell Western for symmetric di-methyl arginine and DNA content); type: cell-based; conditions: Homo sapiens, Table A-2, 96 hours, symmetric di-methyl arginine, read-out: ICW EC50
Text: Z-138 suspension cells were purchased from ATCC (American Type Culture Collection, Manassas, Va.). RPMI/Glutamax medium, penicillin-streptomycin, heat inactivated fetal bovine serum, and D-PBS were purchased from Life Technologies, Grand Island, N.Y., USA. Odyssey blocking buffer, 800CW goat anti-rabbit IgG (H+L) antibody, and Licor Odyssey infrared scanner were purchased from Licor Biosciences, Lincoln, Nebr., USA. Symmetric di-methyl arginine antibody was purchased from EMD Millipore, Billerica, Mass., USA. 16% Paraformaldehyde was purchased from Electron Microscopy Sciences, Hatfield, Pa., USA.
Z-138 suspension cells were maintained in growth medium (RPMI 1640 supplemented with 10% v/v heat inactivated fetal bovine serum and 100 units/mL penicillin-streptomycin) and cultured at 37° C. under 5% CO2.
Cell Treatment, in Cell Western (ICW) for Detection of Symmetric Di-Methyl Arginine and DNA Content.
Z-138 cells were seeded in assay medium at a concentration of 50,000 cells per mL to a 384-well cell culture plate with 50 μL per well. Compound (100 nL) from 384 well source plates was added directly to 384 well cell plate. Plates were incubated at 37° C., 5% CO2 for 96 hours. After four days of incubation, 40 μL of cells from incubated plates were added to poly-D-lysine coated 384 well culture plates (BD Biosciences 356697). Plates were incubated at room temperature for 30 minutes then incubated at 37° C., 5% CO2 for 5 hours. After the incubation, 40 μL per well of 8% paraformaldehyde in PBS (16% paraformaldahyde was diluted to 8% in PBS) was added to each plate and incubated for 30 minutes. Plates were transferred to a Biotek 405 plate washer and washed 5 times with 100 μL per well of wash buffer (1×PBS with 0.1% Triton X-100 (v/v)). Next 30 μL per well of Odyssey blocking buffer were added to each plate and incubated 1 hour at room temperature. Blocking buffer was removed and 20 μL per well of primary antibody was added (symmetric di-methyl arginine diluted 1:100 in Odyssey buffer with 0.1% Tween 20 (v/v)) and plates were incubated overnight (16 hours) at 4° C. Plates were washed 5 times with 100 μL per well of wash buffer. Next 20 μL per well of secondary antibody was added (1:200 800CW goat anti-rabbit IgG (H+L) antibody, 1:1000 DRAQS (Biostatus limited) in Odyssey buffer with 0.1% Tween 20 (v/v)) and incubated for 1 hour at room temperature. The plates were washed 5 times with 100 μL per well wash buffer then 1 time with 100 μL per well of water. Plates were allowed to dry at room temperature then imaged on the Licor Odyssey machine which measures integrated intensity at 700 nm and 800 nm wavelengths. Both 700 and 800 channels were scanned.
First, the ratio for each well was determined by:
Each plate included fourteen control wells of DMSO only treatment (minimum inhibition) as well as fourteen control wells for maximum inhibition treated with 3 μM of a reference compound (Background wells). The average of the ratio values for each control type was calculated and used to determine the percent inhibition for each test well in the plate. Reference compound was serially diluted three-fold in DMSO for a total of nine test concentrations, beginning at 3 μM. Percent inhibition was determined and IC50 curves were generated using triplicate wells per concentration of compound.

SMILES	EC50 [1] [nM]	EC50 [2] [nM]
CN(C)c1ccc2cccc(OCC(=O)NC[C@H](O)CN3CCc4ccccc4C3)c2n1 [Compound A104]	> 20000	1000 to 10000
CN(C)c1ccc2cccc(OCC(=O)NC[C@@H](O)CN3CCc4ccccc4C3)c2n1 [Compound A105]	1000 to 10000	101 to 1000
CS(=O)(=O)N1CCN(c2ccccc2OCC(=O)NCC(O)CN2CCc3ccccc3C2)CC1 (centres unmarked) [Compound A106]	> 20000	101 to 1000
O=C(COc1ccccc1S(=O)(=O)N1CCNCC1)NCC(O)CN1CCc2ccccc2C1 (centres unmarked) [Compound A107]	1000 to 10000	< 100
CN1CCN(S(=O)(=O)c2ccccc2OCC(=O)NCC(O)CN2CCc3ccccc3C2)CC1 (centres unmarked) [Compound A108]	10000 to 50000	101 to 1000
CN(C)S(=O)(=O)c1ccccc1OCC(=O)NCC(O)CN1CCc2ccccc2C1 (centres unmarked) [Compound A109]	101 to 1000	< 100
O=C(COc1ccccc1S(=O)(=O)N1CCCC1)NCC(O)CN1CCc2ccccc2C1 (centres unmarked) [Compound A110]	101 to 1000	< 100
O=C(COc1ccccc1S(=O)(=O)N1CCC(O)C1)NCC(O)CN1CCc2ccccc2C1 (centres unmarked) [Compound A111]	101 to 1000	< 100
CNC(=O)c1ccccc1OCC(=O)NCC(O)CN1CCc2ccccc2C1 (centres unmarked) [Compound A112]	> 20000	101 to 1000
CN(C)C(=O)c1ccccc1OCC(=O)NCC(O)CN1CCc2ccccc2C1 (centres unmarked) [Compound A113]	10000 to 50000	101 to 1000
CC(Oc1ccccc1S(C)(=O)=O)C(=O)NCC(O)CN1CCc2ccccc2C1 (centres unmarked) [Compound A114]	> 20000	1000 to 10000
O=C(COc1ccccc1C1CCNC1)NCC(O)CN1CCc2ccccc2C1 (centres unmarked) [Compound A116]	> 20000	1000 to 10000
O=C(COc1ccccc1C1CCCNC1)NCC(O)CN1CCc2ccccc2C1 (centres unmarked) [Compound A117]	1000 to 10000	101 to 1000
Cn1cc2c(OCC(=O)NCC(O)CN3CCc4ccccc4C3)cccc2n1 (centres unmarked) [Compound A118]	> 20000	1000 to 10000
O=C(COc1cccc2c1CNCC2)NCC(O)CN1CCc2ccccc2C1 (centres unmarked) [Compound A119]	10000 to 50000	101 to 1000
CN1CCc2cccc(OCC(=O)NCC(O)CN3CCc4ccccc4C3)c2C1 (centres unmarked) [Compound A120]	> 20000	1000 to 10000
CC(=O)N1CCN(S(=O)(=O)c2ccccc2OCC(=O)NCC(O)CN2CCc3ccccc3C2)CC1 (centres unmarked) [Compound A122]	> 20000	1000 to 10000
CNS(=O)(=O)c1ccccc1OCC(=O)NCC(O)CN1CCc2ccccc2C1 (centres unmarked) [Compound A123]	1000 to 10000	101 to 1000
O=C(COc1cccc2c1OCC(=O)N2)NCC(O)CN1CCc2ccccc2C1 (centres unmarked) [Compound A124]	> 20000	1000 to 10000
CN(C)c1ncccc1OCC(=O)NCC(O)CN1CCc2ccccc2C1 (centres unmarked) [Compound A127]	> 20000	1000 to 10000
O=C(COc1cccc2ncc(=O)[nH]c12)NCC(O)CN1CCc2ccccc2C1 (centres unmarked) [Compound A129]	> 20000	1000 to 10000
CN1CCCC(c2ccccc2OCC(=O)NCC(O)CN2CCc3ccccc3C2)C1 (centres unmarked) [Compound A130]	1000 to 10000	101 to 1000
CN1CCC(c2ccccc2OCC(=O)NCC(O)CN2CCc3ccccc3C2)CC1 (centres unmarked) [Compound A134]	> 20000	1000 to 10000
O=C(COc1ccccc1-c1ncc[nH]1)NCC(O)CN1CCc2ccccc2C1 (centres unmarked) [Compound A137]	> 20000	1000 to 10000
CN(c1cccc(OCC(=O)NCC(O)CN2CCc3ccccc3C2)c1)S(C)(=O)=O (centres unmarked) [Compound A142]	> 20000	101 to 1000
